Among the data in PubChem BioAssay (NCI) are TGI values, retold here.

What all share (test): growth of human tumour cells (NCI), 48 h
The subject of experiment [1] is OVCAR-8 ovarian.
Experiment [2] concerns A549 NSCLC.
In experiment [3] the test system is TK-10 renal.
Experiment [4] concerns MOLT-4 leukemia.
The test system of experiment [5] is RPMI-8226 leukemia.
Experiment [6] has as its system NCI/ADR-RES ovarian.
Experiment [7] relates to MALME-3M melanoma.
The test system of experiment [8] is DU-145 prostate.
The subject of experiment [9] is UO-31 renal.
Experiment [10] concerns HCT-15 colon.
Experiment [11] deals with HCC-2998 colon.
In experiment [12] the test system is PC-3 prostate.
The test system of experiment [13] is SF-268 CNS.
Experiment [14] concerns CAKI-1 renal.
Experiment [15] has as its system NCI-H23 lung.
Experiment [16] deals with SK-MEL-28 melanoma.
The test system of experiment [17] is NCI-H460 lung.
The subject of experiment [18] is COLO 205 colon.
Experiment [19] concerns T-47D breast.
Experiment [20] has as its system HL-60(TB) leukemia.

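Five compound concentrations were applied to cells in 96-well plates for 48 hours; endpoints were derived by simple linear interpolation of the resulting dose-response curve. TGI is the concentration that stops growth completely.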

`c1ccc(-c2cc(-c3cc(-c4ccccc4)no3)on2)cc1`: the TGI in [1] is 30.2 µM; in [2], greater than 100 µM; in experiment [3], greater than 100 µM; in [4], 81.3 µM; in [5], greater than 100 µM; in [6] it was greater than 100 µM. Further, the TGI in experiment [7], in experiment [8], in [9], in [10], in experiment [11] and in experiment [12] was greater than 100 µM throughout. Moreover, the TGI in experiment [13], in experiment [14], in experiment [15], in [16], in experiment [17] and in experiment [18] was greater than 100 µM each time. Further, the TGI in experiment [19] and in experiment [20] was greater than 100 µM in each case.
In the case of `CC(C)C(/C=C/c1ccc(Cl)cc1)=N\NC(=S)NN`, the TGI is greater than 100 µM in [1]; greater than 100 µM in experiment [2]; greater than 100 µM in experiment [3]; greater than 100 µM in experiment [4]; greater than 100 µM in experiment [5]; 48.1 µM in [6]. Moreover, the TGI in experiment [7], in experiment [8], in [9], in experiment [10], in [11] and in experiment [12] was greater than 100 µM throughout. The TGI was greater than 100 µM in [13]; greater than 100 µM in [14]; greater than 100 µM in experiment [15]; greater than 100 µM in experiment [16]; 41.8 µM in experiment [17]; greater than 100 µM in experiment [18]. For the same compound, the TGI was greater than 100 µM in [19] and 30.7 µM in [20].
Regarding `CC[C@@H]1C[C@@H](O)[C@@H]2[C@H](O)[C@H](O)CN2C1`, the TGI in [1], in experiment [2], in experiment [3], in [4], in experiment [5] and in experiment [6] was greater than 100 µM each time. For the same compound, the TGI in [7], in [8], in [9], in experiment [10], in [11] and in experiment [12] was greater than 100 µM each time. The TGI in experiment [13], in experiment [14], in experiment [15], in experiment [16], in experiment [17] and in experiment [18] was greater than 100 µM each time. Further, the TGI in [19] and in experiment [20] was greater than 100 µM throughout.
For `CC1=NN(c2ccccc2)C(=O)C1C(=O)C(=O)Nc1ccc(C)cc1C` (stereo not given), the TGI in experiment [1], in experiment [2], in experiment [3], in experiment [4], in [5] and in experiment [6] was greater than 100 µM each time. Further, the TGI in experiment [7], in experiment [8], in experiment [9], in [10], in experiment [11] and in experiment [12] was greater than 100 µM throughout. Moreover, the TGI in [13], in experiment [14], in experiment [15], in [16], in experiment [17] and in experiment [18] was greater than 100 µM in each case. Besides, the TGI in experiment [19] and in [20] was greater than 100 µM in each case.
Consider `CN(CCNC(=O)c1cc(-c2ccccc2)nc2ccccc12)CCNC(=O)c1cc(-c2ccccc2)nc2ccccc12`, for which the TGI in experiment [1], in experiment [2], in [3], in [4], in experiment [5] and in experiment [6] was greater than 100 µM throughout. The TGI in experiment [7] is 4.09 µM; in experiment [8], greater than 95.5 µM; in experiment [9], greater than 100 µM; in [10], greater than 100 µM; in experiment [11], 5.54 µM; in experiment [12], greater than 100 µM. Besides, the TGI in experiment [13] is greater than 100 µM; in experiment [14], greater than 100 µM; in experiment [15] it was greater than 100 µM; in [16], 5.29 µM; in experiment [17] it was greater than 100 µM; in experiment [18], 4.71 µM. Besides, the TGI was greater than 100 µM in [19] and 24.9 µM in experiment [20].
Consider `CCOC(=O)c1nc2ccc(C(F)(F)F)cc2nc1Nc1ccc(OC)c(OC)c1`, for which the TGI in experiment [1], in experiment [2], in experiment [3], in experiment [4], in experiment [5] and in experiment [6] was greater than 100 µM throughout. Besides, the TGI in experiment [7], in experiment [8], in experiment [9], in [10], in experiment [11] and in experiment [12] was greater than 100 µM throughout. The TGI in [13] is greater than 100 µM; in [14] it was 86.5 µM; in experiment [15], greater than 100 µM; in experiment [16] it was greater than 100 µM; in [17], greater than 100 µM; in experiment [18] it was greater than 100 µM. For the same compound, the TGI in [19] and in experiment [20] was greater than 100 µM in each case.
With `CC1(C)OC([C@H](O)CO)C([C@H]2NCCS2)O1` (stereo not given in full), the TGI in [1], in [2], in [3], in experiment [4], in experiment [5] and in experiment [6] was greater than 100 µM throughout. Also, the TGI in experiment [7], in experiment [8], in experiment [9], in experiment [10], in experiment [11] and in experiment [12] was greater than 100 µM each time. The TGI in experiment [13], in [14], in [15], in experiment [16], in [17] and in [18] was greater than 100 µM each time. The TGI in experiment [19] and in [20] was greater than 100 µM throughout.
